Among the data in PubChem BioAssay AID328 (DTP/NCI, 2004) are T/C values, retold here.

SMILES strings stand for the structures. Values joined by “and” are separate entries in the source; they are usually repeats but may differ in a detail not shown here. Equal entries are not always repeated. Inconclusive results and toxic doses are left out.

The experiment relates to BDF1 mice, P388 leukemia ip, median survival T/C. As to the kind of experiment: NCI In Vivo Anticancer Drug Screen. Data for tumor model P388 Leukemia (intraperitoneal) in B6D2F1 (BDF1) mice. As to conditions: endpoint: median survival time, higher = longer survival. An outline of the steps:
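Transplantable tumour in mice; compound vs vehicle dosing; survival scored; ratio of treated to control reported.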

Where [1] appears, read: dose: 25.0 mg/kg/injection, schedule: Q04DX003 (ip), vehicle: saline with Tween-80.
Where [2] appears, read: dose: 50.0 mg/kg/injection, schedule: Q01DX009 (ip), vehicle: saline with Tween-80.
Setting [3] is: dose: 50.0 mg/kg/injection, schedule: Q04DX003 (ip), vehicle: saline with Tween-80.
The mark [4] stands for this setting: dose: 100.0 mg/kg/injection, schedule: Q01DX009 (ip), vehicle: saline with Tween-80.
Where [5] appears, read: dose: 50.0 mg/kg/injection, schedule: Q04DX003 (ip), vehicle: Klucel (hydroxypropylcellulose) (HPC).
Setting [6] is: dose: 100.0 mg/kg/injection, schedule: Q04DX003 (ip), vehicle: saline with Tween-80.
[7] abbreviates: dose: 100.0 mg/kg/injection, schedule: Q04DX003 (ip), vehicle: saline.
Where [8] appears, read: dose: 200.0 mg/kg/injection, schedule: Q04DX003 (ip), vehicle: saline.
Setting [9] is: dose: 400.0 mg/kg/injection, schedule: Q04DX003 (ip), vehicle: saline.

For the compound `CC(C)(C)OC(=O)NOc1ccc([N+](=O)[O-])cc1[N+](=O)[O-]`, the T/C is 117 % of control (dose: 3.12 mg/kg/injection, schedule: Q01DX009 (ip), vehicle: saline with Tween-80); 90 % of control (dose: 6.25 mg/kg/injection, schedule: Q01DX009 (ip), vehicle: saline with Tween-80); 100 % of control (dose: 6.25 mg/kg/injection, schedule: Q04DX003 (ip), vehicle: saline with Tween-80); 106 % of control and 93 % of control (dose: 12.5 mg/kg/injection, schedule: Q01DX009 (ip), vehicle: saline with Tween-80); 104 % of control (dose: 12.5 mg/kg/injection, schedule: Q04DX003 (ip), vehicle: saline with Tween-80); 90 % of control and 96 % of control (dose: 25.0 mg/kg/injection, schedule: Q01DX009 (ip), vehicle: saline with Tween-80). For the same compound, the T/C under setting [1] was 97 % of control, the T/C under setting [2] was 93 % of control, the T/C under setting [3] is 97 % of control and the T/C under setting [4] was 100 % of control.

In the case of `Oc1cc(CN(CCCl)CCCl)c(O)cc1CN(CCCl)CCCl`, the T/C (dose: 0.63 mg/kg/injection, schedule: Q01DX010 (ip), vehicle: saline) is 170 % of control; the T/C (dose: 1.25 mg/kg/injection, schedule: Q01DX010 (ip), vehicle: saline) was 163 % of control and 210 % of control; the T/C (dose: 2.5 mg/kg/injection, schedule: Q01DX010 (ip), vehicle: saline) was 177 % of control and 220 % of control; the T/C (dose: 5.0 mg/kg/injection, schedule: Q01DX010 (ip), vehicle: saline) was 165 % of control.

`CC1CCS(=O)(=O)CC1.[Cl][Hg][Cl]`: the T/C (dose: 0.3 mg/kg/injection, schedule: Q01DX009 (ip), vehicle: saline) is 95 % of control; the T/C (dose: 0.6 mg/kg/injection, schedule: Q01DX009 (ip), vehicle: saline) was 100 % of control; the T/C (dose: 1.2 mg/kg/injection, schedule: Q01DX009 (ip), vehicle: saline) was 95 % of control.

In the case of `O=NN(CCF)C(=O)NC12CC3CC(CC(C3)C1)C2`, the T/C was 104 % of control (dose: 5.5 mg/kg/injection, schedule: Q04DX003 (ip), vehicle: Klucel (hydroxypropylcellulose) (HPC)); 112 % of control (dose: 11.0 mg/kg/injection, schedule: Q04DX003 (ip), vehicle: Klucel (hydroxypropylcellulose) (HPC)); 158 % of control (dose: 12.0 mg/kg/injection, schedule: Q01DX009 (ip), vehicle: Klucel (hydroxypropylcellulose) (HPC)); 162 % of control and 180 % of control (dose: 22.0 mg/kg/injection, schedule: Q04DX003 (ip), vehicle: Klucel (hydroxypropylcellulose) (HPC)); 250 % of control (dose: 25.0 mg/kg/injection, schedule: Q01DX009 (ip), vehicle: Klucel (hydroxypropylcellulose) (HPC)); 240 % of control (dose: 33.0 mg/kg/injection, schedule: Q04DX003 (ip), vehicle: Klucel (hydroxypropylcellulose) (HPC)). Besides, under setting [5], the T/C was 245 % of control and 300 % of control.

`CCC(c1ccc2cc(OC)ccc2c1)C(C(=O)O)C(=O)O` (centres undefined): the T/C under setting [5] is 87 % of control.

Turning to `CCCCOc1ccc(NC(N)=Nc2ccc(Cl)cc2)cc1`, the T/C is 95 % of control (dose: 3.12 mg/kg/injection, schedule: Q01DX010 (ip), vehicle: carboxymethylcellulose (CMC)); 90 % of control (dose: 12.5 mg/kg/injection, schedule: Q01DX010 (ip), vehicle: carboxymethylcellulose (CMC)); 95 % of control (dose: 25.0 mg/kg/injection, schedule: Q01DX010 (ip), vehicle: carboxymethylcellulose (CMC)); 109 % of control under setting [1]; 95 % of control (dose: 50.0 mg/kg/injection, schedule: Q01DX010 (ip), vehicle: carboxymethylcellulose (CMC)); 90 % of control under setting [3].

In the case of `CN(C)c1ccccc1.[C-]#[O+].[C-]#[O+].[C-]#[O+].[Cr]`, under setting [6], the T/C was 91 % of control.

`O=S(=O)(O)C(I)(I)S(=O)(=O)O`: the T/C was 100 % of control under setting [7], 95 % of control under setting [8] and 104 % of control under setting [9].

On to `CS(=O)CC(O)(c1ccc(F)cc1)C1CC1` (centres undefined), for which the T/C under setting [2] is 99 % of control and the T/C under setting [4] was 103 % of control.

For `CCOC(=O)CCN1CCOCC1`, the T/C runs as follows: (dose: 100.0 mg/kg/injection, schedule: Q01DX009 (ip), vehicle: saline) 100 % of control; under setting [7], 95 % of control; (dose: 200.0 mg/kg/injection, schedule: Q01DX009 (ip), vehicle: saline) 100 % of control; under setting [8], 100 % of control; (dose: 400.0 mg/kg/injection, schedule: Q01DX009 (ip), vehicle: saline) 100 % of control; under setting [9], 108 % of control.

Consider `Cn1c(CCCC(=O)O)nc2cc(N(CCCl)CCCl)ccc21`, for which the T/C reads like this: (dose: 1.8 mg/kg/injection, schedule: Q04DX003 (ip), vehicle: saline) 116 % of control; (dose: 2.5 mg/kg/injection, schedule: Q01DX009 (ip), vehicle: saline) 154 % of control; (dose: 4.3 mg/kg/injection, schedule: Q04DX003 (ip), vehicle: saline with Tween-80) 175 % of control; (dose: 5.0 mg/kg/injection, schedule: Q01DX009 (ip), vehicle: saline) 166 % of control; (dose: 6.5 mg/kg/injection, schedule: Q04DX003 (ip), vehicle: saline with Tween-80) 185 % of control; (dose: 9.9 mg/kg/injection, schedule: Q04DX003 (ip), vehicle: saline with Tween-80) 180 % of control. Besides, the T/C is 200 % of control (dose: 10.0 mg/kg/injection, schedule: Q01DX009 (ip), vehicle: saline); 200 % of control (dose: 15.0 mg/kg/injection, schedule: Q04DX003 (ip), vehicle: saline with Tween-80); 180 % of control (dose: 22.5 mg/kg/injection, schedule: Q04DX003 (ip), vehicle: saline with Tween-80).

Turning to `O=C1c2c(Cl)c(Cl)c(Cl)c(Cl)c2C(=O)N1c1ccc(-c2ccccc2)cc1`, the T/C is, setting by setting: (dose: 43.7 mg/kg/injection, schedule: Q01DX009 (ip), vehicle: saline with Tween-80) 101 % of control; (dose: 87.5 mg/kg/injection, schedule: Q01DX009 (ip), vehicle: saline with Tween-80) 101 % of control; (dose: 175.0 mg/kg/injection, schedule: Q01DX009 (ip), vehicle: saline with Tween-80) 99 % of control.

`COc1ccccc1Oc1ccc(N=Cc2ccc(C)cc2)cc1`: the T/C was 100 % of control (dose: 12.0 mg/kg/injection, schedule: Q01DX001 (ip), vehicle: Klucel (hydroxypropylcellulose) (HPC)); 104 % of control (dose: 25.0 mg/kg/injection, schedule: Q01DX001 (ip), vehicle: Klucel (hydroxypropylcellulose) (HPC)); 95 % of control (dose: 50.0 mg/kg/injection, schedule: Q01DX001 (ip), vehicle: Klucel (hydroxypropylcellulose) (HPC)); 100 % of control (dose: 100.0 mg/kg/injection, schedule: Q01DX001 (ip), vehicle: Klucel (hydroxypropylcellulose) (HPC)).

`COc1ccc(NC(=S)N(C)C)cc1`: the T/C by setting is: under setting [4], 100 % of control; (dose: 200.0 mg/kg/injection, schedule: Q01DX009 (ip), vehicle: saline with Tween-80) 109 % of control; (dose: 400.0 mg/kg/injection, schedule: Q01DX009 (ip), vehicle: saline with Tween-80) 109 % of control.

For `FC(F)(F)/C([S-])=C(/[S-])C(F)(F)F.FC(F)(F)/C([S-])=C(/[S-])C(F)(F)F.FC(F)(F)/C([S-])=C(/[S-])C(F)(F)F.FC(F)(F)/C([S-])=C(/[S-])C(F)(F)F.[Co+3].[Co+3]`, the T/C (dose: 12.5 mg/kg/injection, schedule: Q04DX003 (ip), vehicle: other) is 110 % of control and the T/C (dose: 25.0 mg/kg/injection, schedule: Q04DX003 (ip), vehicle: other) is 120 % of control.

For the compound `Cc1c(N)nc(Br)c2ccccc12`, the T/C runs as follows: (dose: 100.0 mg/kg/injection, schedule: Q04DX003 (ip), vehicle: saline sonified) 91 % of control; (dose: 200.0 mg/kg/injection, schedule: Q04DX003 (ip), vehicle: saline sonified) 116 % of control.

Turning to `COc1ccccc1NC(=O)Nc1cccc(Cl)c1`, the T/C is 95 % of control under setting [6]; 104 % of control (dose: 200.0 mg/kg/injection, schedule: Q04DX003 (ip), vehicle: saline with Tween-80); 95 % of control (dose: 400.0 mg/kg/injection, schedule: Q04DX003 (ip), vehicle: saline with Tween-80).
